Tests used:
[1] = test system: laminin 521; assay: Red blood cell adhesion to laminin 521 under flow conditions; assay type: cell-based; settings: RBCs from sickle cell disease patients incubated with molecule at 0.1 mM for 30 min at room temperature, recombinant human laminin 521, 3 blood samples
Procedure: (§1) In the figures: • Figure 1: Adhesion of RBCs from sickle cell disease patients (N = 3) to laminin 521. Results are presented as a percentage of adhesion, 100% of adhesion being the adhesion level observed for RBCs incubated with buffer supplemented with DMSO alone. • Figure 2: Adhesion of RBCs from sickle cell disease patients to laminin 521 in the presence of increasing concentrations of Molecule 2 and Molecule 3. Results are presented as a percentage of adhesion, 100% of adhesion being the adhesion level observed for RBCs incubated without the molecules.
Red blood cell adhesion to laminin 521 was measured under flow conditions using Vena8 Endothelial+™ biochips (internal channel dimensions: length 20 mm, width 0.8 mm, height 0.12 mm) and ExiGo™ Nanopumps (Cellix Ltd, Dublin, Ireland). Three different solutions were prepared with either Molecule 1, Molecule 2 or Molecule 3 (0.1 mM) by solubilizing Molecule 1, 2 or 3 using DMSO. Recombinant human laminin 521 (BioLamina) at 5 ng/µl was immobilized on the internal surface of the biochips at 4°C overnight. RBCs from sickle cell disease patients were suspended at 5x10^7 cells/ml in Hanks balanced salt solution, without calcium chloride and magnesium sulfate (Sigma-Aldrich) supplemented with 0.4% BSA, and incubated with the solution comprising either Molecule 1, Molecule 2 or Molecule 3 at 0.1 mM or DMSO, for 30 min at room temperature (20°C) and perfused through the biochip channels for 10 min at a shear stress of 0.5 dyn/cm^2 followed by a washout at the same shear stress with the buffer alone for 30 min. Five minutes washouts with the Hanks/0.4% BSA buffer were performed at 1, 2, 3, 4 and 5 dyn/cm^2. After each wash, adherent RBCs were counted in 7 representative areas along the centerline of each channel using the AxioObserver Z1 microscope and ZEN analysis software (Carl Zeiss, Le Pecq, France) and the mean number of adherent RBCs was determined for each condition and each washout step (Figure 1). Images of the same 7 areas were obtained throughout each experiment. […]

[2] = test system: RBCs; assay: Control of hemolysis (RBC concentration by CASY Cell Counter and Analyzer); assay type: cell-based; settings: 0.1 mM, 30 min incubation at room temperature; for RBCs/ml (x10^6): Hanks/0.4% BSA buffer, RBCs suspended at 6x10^6 cells/ml; for decrease of RBC concentration compared to vehicle (DMSO) alone: result in words
Procedure: (§2) At the end of the 30 min of incubation with the molecules, the number of RBC for the control of hemolysis was measure by using CASY® Cell Counter and Analyzer.
(§3) For hemolysis assays, RBCs were suspended at 6x10^6 cells/ml in the Hanks/0.4% BSA buffer and the concentration measured accurately using the CASY® Cell Counter and Analyzer. RBCs were then incubated with the solution comprising either Molecule 1, Molecule 2 or Molecule 3 at 0.1 mM or DMSO, for 30 min at room temperature. After this incubation time cell concentration was measured again using CASY® Cell Counter and Analyzer (Table 1). If hemolysis occurs during this incubation time it will be reflected by a decrease in the RBC concentration.

[3] = as above; assay type: cell-based; settings: red blood cells; 0.1 mM, 30 min incubation at room temperature; compared to vehicle (DMSO); read-out: decrease of the RBC concentration
Procedure: as §2, §3

[4] = test system: laminin 521; assay: Dose effect in the RBC adhesion assay to laminin 521; assay type: cell-based, human; settings: 50, 100 and 200 µM; RBCs from sickle cell disease patients; same conditions as Example 1
Procedure: as §1
Red blood cell adhesion to laminin 521 was measured under flow conditions using Vena8 Endothelial+™ biochips (internal channel dimensions: length 20 mm, width 0.8 mm, height 0.12 mm) and ExiGo™ Nanopumps (Cellix Ltd, Dublin, Ireland). Three different solutions were prepared with either Molecule 1, Molecule 2 or Molecule 3 (0.1 mM) by solubilizing Molecule 1, 2 or 3 using DMSO. Recombinant human laminin 521 (BioLamina) at 5 ng/µl was immobilized on the internal surface of the biochips at 4°C overnight. […] After each wash, adherent RBCs were counted in 7 representative areas along the centerline of each channel using the AxioObserver Z1 microscope and ZEN analysis software (Carl Zeiss, Le Pecq, France) and the mean number of adherent RBCs was determined for each condition and each washout step (Figure 1). […]

## CCC(=O)N1CCc2ccc(OCc3nc(C(=O)NCc4ccccc4)co3)cc2C1c1ccc(C)cc1 (centres unmarked) [Molecule 1]
[1]
  RBC adhesion to laminin: not
[2]
  RBCs/ml (x10^6): 6.04 x10^6 RBCs/ml
  decrease of RBC concentration compared to vehicle (DMSO) alone: no decrease

## Cc1c(CC(=O)NC(C(=O)O)c2ccccc2)c(=O)oc2c(C)c3oc4c(c3cc12)CCCC4 (centres unmarked) [Molecule 2]
[1]
  RBC adhesion to laminin: inhibited
[3]
  hemolysis at 0.5 h, 100 µM: < 10%
[2]
  RBCs/ml (x10^6): 5.55 x10^6 RBCs/ml
[4]
  inhibition of RBC adhesion to laminin with increasing concentrations: increasing inhibition

## O=S(=O)(O)CCCn1c(=NN=Cc2c(O)ccc3ccccc23)sc2ccccc21 [Molecule 3]
[1]
  RBC adhesion to laminin: inhibited
[2]
  RBCs/ml (x10^6): 6.02 x10^6 RBCs/ml
  decrease of RBC concentration compared to vehicle (DMSO) alone: no decrease
[4]
  inhibition of RBC adhesion to laminin with increasing concentrations: increasing inhibition
